From the supplement of paper PMC11061612

What was measured:
Assay in all cases: combination Emax (second highest fraction inhibited in the dose matrix, 72 h); higher = more inhibition; extreme values may be limits of the assay
[1] = tested on: BFTC-905 (Bladder Carcinoma)
Procedure, shortened: (§1)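 Bliss excess equals the observed combination effect minus the expected value EA + EB − EA·EB, where EA and EB are the effects of each agent alone. Combination Emax is the second-highest inhibition within the matrix. Inhibition was scaled from CellTiter-Glo 2.0 luminescence, with 0 set by vehicle wells and 1 by blank wells, after 72 hours of two-drug dosing of cells plated in 1536-well plates.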

[2] = tested on: BL-41 (Burkitt's Lymphoma)
Procedure, shortened: as §1

[3] = tested on: CAMA-1 (Breast Carcinoma)
Procedure, shortened: as §1

CHP-212 (Neuroblastoma) = tested on: CHP-212 (Neuroblastoma)
Procedure, shortened: as §1

[4] = tested on: COLO-678 (Colorectal Carcinoma)
Procedure, shortened: as §1

[5] = tested on: DND-41 (T-Lymphoblastic Leukemia)
Procedure, shortened: as §1

[6] = tested on: HL-60 (Acute Myeloid Leukemia)
Procedure, shortened: as §1

[7] = tested on: KARPAS-45 (T-Lymphoblastic Leukemia)
Procedure, shortened: as §1

[8] = tested on: KCL-22 (Chronic Myelogenous Leukemia)
Procedure, shortened: as §1

[9] = tested on: KM12 (Colorectal Carcinoma)
Procedure, shortened: as §1

[10] = tested on: L-540 (Hodgkin's Lymphoma)
Procedure, shortened: as §1

[11] = tested on: MFM-223 (Breast Carcinoma)
Procedure, shortened: as §1

[12] = tested on: MOLT-16 (T-Lymphoblastic Leukemia)
Procedure, shortened: as §1

[13] = tested on: MS751 (Cervical Carcinoma)
Procedure, shortened: as §1

[14] = tested on: NCI-H1792 (Lung Adenocarcinoma)
Procedure, shortened: as §1

[15] = tested on: PANC-08-13 (Pancreatic Carcinoma)
Procedure, shortened: as §1

[16] = tested on: SR (Other Blood Carcinomas)
Procedure, shortened: as §1

[17] = tested on: SU-DHL-8 (B-Cell Non-Hodgkin's Lymphoma)
Procedure, shortened: as §1

[18] = tested on: SW1417 (Colorectal Carcinoma)
Procedure, shortened: as §1

[19] = tested on: TOV-112D (Ovarian Carcinoma)
Procedure, shortened: as §1

| SMILES | combination Emax [1] | combination Emax [2] | combination Emax [3] | combination Emax (CHP-212 (Neuroblastoma)) | combination Emax [4] | combination Emax [5] | combination Emax [6] | combination Emax [7] | combination Emax [8] | combination Emax [9] | combination Emax [10] | combination Emax [11] | combination Emax [12] | combination Emax [13] | combination Emax [14] | combination Emax [15] | combination Emax [16] | combination Emax [17] | combination Emax [18] | combination Emax [19] |
| --- | --- | --- | --- | --- | --- | --- | --- | --- | --- | --- | --- | --- | --- | --- | --- | --- | --- | --- | --- | --- |
| Cc1cc2ncnn2cc1Nc1ncc2c(n1)n(C1CCOCC1)c(=O)n2C [AZD7648] + CCN(CCO)CCCOc1ccc2c(Nc3cc(CC(=O)Nc4cccc(F)c4)[nH]n3)ncnc2c1 [AZD2811] (first compound max 10 µM, 7x7, partner max 1 µM) | 0.54 | 0.747 | 0.28 | 0.693 | 0.152 | 0.236 | 0.865 | 0.931 | 0.485 | 0.261 | 0.504 | 0.298 | 1 | 0.453 | 0.553 | 0.254 | 0.86 | 0.245 | 0.313 | 0.458 |
| Cc1cc2ncnn2cc1Nc1ncc2c(n1)n(C1CCOCC1)c(=O)n2C [AZD7648] + CN(C)CCCOc1ccc(-c2ccc3ncc4c(c3c2)n(C2CCOCC2)c(=O)n4C)cn1 [AZD0156] (first compound max 10 µM, 7x7, partner max 1 µM) | 0.221 | 0.269 | 0.261 | 0.288 | 0.0911 | 0.242 | 0.416 | 0.234 | 0.332 | 0.241 | 0.366 | 0.238 | 0.511 | 0.275 | 0.469 | 0.223 | 0.377 | 0.125 | 0.326 | 0.38 |
| Cc1cc2ncnn2cc1Nc1ncc2c(n1)n(C1CCOCC1)c(=O)n2C [AZD7648] + C[C@@H]1COCCN1C2=NC(=NC(=C2)C3(CC3)[S@](=N)(=O)C)C4=C5C=CNC5=NC=C4 [AZD6738] (first compound max 10 µM, 7x7, partner max 10 µM) | 0.804 | 1 | 0.393 | 0.776 | 0.175 | 0.894 | 0.834 | 0.74 | 0.983 | 0.636 | 0.951 | 0.832 | 1 | 0.296 | 0.696 | 0.325 | 0.924 | 0.899 | 0.491 | 0.685 |
| Cc1cc2ncnn2cc1Nc1ncc2c(n1)n(C1CCOCC1)c(=O)n2C [AZD7648] + O=C(c1cc(Cc2n[nH]c(=O)c3ccccc23)ccc1F)N1CCN(C(=O)C2CC2)CC1 [Olaparib] (first compound max 10 µM, 7x7, partner max 10 µM) | 0.178 | 0.14 | 0.109 | 0.529 | 0.132 | 0.26 | 0.228 | 0.177 | 0.25 | 0.21 | 0.396 | 0.172 | 0.633 | 0.197 | 0.322 | 0.102 | 0.514 | 0.448 | 0.165 | 0.353 |
| NC1(C(=O)N[C@@H](CCO)c2ccc(Cl)cc2)CCN(c2ncnc3[nH]ccc23)CC1 [Capivasertib] + CC(=O)c1c(C)c2cnc(Nc3ccc(N4CCNCC4)cn3)nc2n(C2CCCC2)c1=O [Palbociclib] (first compound max 10 µM, 7x7, partner max 10 µM) | 0.397 | 0.419 | 0.668 | 0.556 | 0.354 | 0.462 | 0.799 | 0.982 | 0.612 | 0.853 | 0.214 | 0.882 | 0.924 | 0.236 | 0.553 | 0.308 | 0.844 | 0.571 | 0.269 | 0.542 |
| NC1(C(=O)N[C@@H](CCO)c2ccc(Cl)cc2)CCN(c2ncnc3[nH]ccc23)CC1 [Capivasertib] + CC(C)n1c(=O)n(C)c2cnc3cc(F)c(-c4ccc(OCCCN5CCCCC5)nc4)cc3c21 [AZD1390] (first compound max 10 µM, 7x7, partner max 0.3 µM) | 0.221 | 0.297 | 0.665 | 0.262 | 0.146 | 0.165 | 0.225 | 0.581 | 0.266 | 0.755 | 0.265 | 0.864 | 0.719 | 0.19 | 0.179 | 0.242 | 0.361 | 0.107 | 0.276 | 0.175 |
| NC1(C(=O)N[C@@H](CCO)c2ccc(Cl)cc2)CCN(c2ncnc3[nH]ccc23)CC1 [Capivasertib] + CCN(CCO)CCCOc1ccc2c(Nc3cc(CC(=O)Nc4cccc(F)c4)[nH]n3)ncnc2c1 [AZD2811] (first compound max 10 µM, 7x7, partner max 1 µM) | 0.428 | 0.706 | 0.768 | 0.749 | 0.222 | 0.224 | 0.859 | 0.979 | 0.472 | 0.77 | 0.361 | 0.918 | 1 | 0.632 | 0.34 | 0.329 | 0.957 | 0.324 | 0.278 | 0.42 |
| NC1(C(=O)N[C@@H](CCO)c2ccc(Cl)cc2)CCN(c2ncnc3[nH]ccc23)CC1 [Capivasertib] + COc1nnc2ccc(N3CCC(c4ccc(OCCN5CCN(C)C(=O)[C@H]5C)cc4)CC3)nn12 [AZD5153] (first compound max 10 µM, 7x7, partner max 1 µM) | 0.681 | 0.974 | 0.928 | 0.932 | 0.396 | 0.679 | 1 | 1 | 0.792 | 0.847 | 0.605 | 0.852 | 1 | 0.794 | 0.537 | 0.668 | 0.769 | 0.899 | 0.482 | 0.665 |
| NC1(C(=O)N[C@@H](CCO)c2ccc(Cl)cc2)CCN(c2ncnc3[nH]ccc23)CC1 [Capivasertib] + C[C@@H]1COCCN1C2=NC(=NC(=C2)C3(CC3)[S@](=N)(=O)C)C4=C5C=CNC5=NC=C4 [AZD6738] (first compound max 10 µM, 7x7, partner max 10 µM) | 0.623 | 0.981 | 0.684 | 0.829 | 0.237 | 0.886 | 0.805 | 0.854 | 0.979 | 0.91 | 0.94 | 0.888 | 1 | 0.498 | 0.767 | 0.478 | 0.954 | 0.964 | 0.497 | 0.718 |
| NC1(C(=O)N[C@@H](CCO)c2ccc(Cl)cc2)CCN(c2ncnc3[nH]ccc23)CC1 [Capivasertib] + Cn1cnc2c(F)c(Nc3ccc(Br)cc3Cl)c(C(=O)NOCCO)cc21 [Selumetinib] (first compound max 10 µM, 7x7, partner max 10 µM) | 0.746 | 0.287 | 0.693 | 0.946 | 0.544 | 0.233 | 0.874 | 0.627 | 0.604 | 0.868 | 0.188 | 0.894 | 0.805 | 0.263 | 0.504 | 0.405 | 0.582 | 0.0919 | 0.586 | 0.313 |
| Cc1nc(Nc2ncc(C(=O)Nc3c(C)cccc3Cl)s2)cc(N2CCN(CCO)CC2)n1 [Dasatinib] + CC(=O)Nc1cccc(-n2c(=O)n(C3CC3)c(=O)c3c(Nc4ccc(I)cc4F)n(C)c(=O)c(C)c32)c1 [Trametinib] (first compound max 2 µM, 7x7, partner max 1 µM) | 0.863 | 0.144 | 0.127 | 1 | 0.559 | 0.263 | 0.703 | 0.592 | 0.93 | 0.714 | 0.148 | 0.561 | 0.326 | 0.282 | 1 | 0.738 | 0.245 | 0.0526 | 0.834 | 0.749 |
| COc1cccc2c1C(=O)c1c(O)c3c(c(O)c1C2=O)C[C@@](O)(C(=O)CO)C[C@@H]3O[C@H]1C[C@H](N)[C@H](O)[C@H](C)O1 [Doxorubicin] + Cc1cc2ncnn2cc1Nc1ncc2c(n1)n(C1CCOCC1)c(=O)n2C [AZD7648] (first compound max 1 µM, 7x7, partner max 10 µM) | 0.974 | 1 | 0.469 | 0.782 | 0.715 | 0.889 | 0.994 | 0.337 | 0.932 | 0.936 | 0.931 | 0.671 | 1 | 0.891 | 0.923 | 0.182 | 0.994 | 0.943 | 0.432 | 0.926 |
| COc1cc2ncnc(Nc3ccc(F)c(Cl)c3)c2cc1OCCCN1CCOCC1 [Gefitinib] + CC(C)n1c(=O)n(C)c2cnc3cc(F)c(-c4ccc(OCCCN5CCCCC5)nc4)cc3c21 [AZD1390] (first compound max 10 µM, 7x7, partner max 0.3 µM) | 0.212 | 0.279 | 0.111 | 0.157 | 0.306 | 0.115 | 0.0178 | 0.644 | 0.155 | 0.044 | 0.451 | 0.121 | 0.363 | 0.133 | 0.231 | 0.143 | 0.2 | 0.142 | 0.164 | 0.276 |
